Measurements reported in patent US20160361251A1, “NOVEL PROCESS FOR PRODUCING TRANSMUCOSAL PHARMACEUTICAL FORMULATIONS AND FORMULATIONS THUS OBTAINED” (Clemann Group, priority 2013, published 2016).

B1: rBetv1: recombinant allergen rBetv1, a characteristic allergen of trees of the order of fagales and in particular birch (protein, UniProt P15494 2-160, looked up)
Major pollen allergen Bet v …: GVFNYETETTSVIPAARLFKAFILDGDNLFPKVAPQAISSVENIEGNGGPGTIKKISFPEGFPFKYVKDRVDEVDHTNFKYNYSVIEGGPIGDTLEKISNEIKIVATPDGGSILKISNKYHTKGDHEVKAEQVKASKEMGETLLRAVESYLLAHSDAYN

Assay: Dissolution of active ingredient in ternary mixture stearate 1500/TPGS/water
Format: physicochemical
Protocol: For this purpose, 10 g of ternary mixture are prepared from 4.50 g of stearate 1500, 500 mg of TPGS and 5 g of water at 50° C. This mixture is maintained at 50° C. with stirring for 5 minutes.
In an Erlenmeyer provided with magnetic stirring, 1.80 g of stearate 1500 and 200 mg of TPGS are mixed at 50° C. with stirring for 3 minutes in order to form a homogenous and intimate mixture of both polymers. The mixture is then slowly cooled to 40° C.
1 ml of an aqueous solution of rBetv1 is then prepared at a concentration of 3 mg/ml.
1 ml of this solution is then introduced into the previous mixture of molten polymer maintained at 40° C.

Molecule	dissolution in ternary mixture (stearate 1500/TPGS/water 4.50 g/500 mg/5 g at 50° C., 4.54 g powder added)	dissolution in molten polymer mixture (1 ml of 3 mg/ml aqueous solution into 1.80 g stearate 1500 + 200 mg TPGS at 40° C.)
CNCC(O)c1ccc(O)c(O)c1.O=C(O)C(O)C(O)C(=O)O (centres unmarked) [adrenaline bitartrate]	total and rapid	
B1		complete and rapid
